System: maternal liver
Test: Maternal liver histopathology (H&E)
Format: in vivo, mouse (CD-1)
Details: for CA, any severity: % / CA, any severity: N / CA, marked: % / CA, marked: N / CA, minimal to mild: % / CA, minimal to mild: N / CA, moderate: % / CA, moderate: N / Focal regions of classic necrosis: % / Focal regions of classic necrosis: N / Increase in cell death: % / Increase in cell death: N / Increase in mitotic figures: % / Increase in mitotic figures: N / Vacuolation, any severity: % / Vacuolation, any severity: N / Vacuolation, mild: % / Vacuolation, mild: N / Vacuolation, minimal: % / Vacuolation, minimal: N / Vacuolation, moderate: % / Vacuolation, moderate: N: maternal liver
Excerpt: From each uterus, first, viable embryos and their matched placentas were collected in succession within a horn and immediately snap frozen ( n=2–5 per litter ), and subsequent embryos were collected for growth measurements ( n=2–11 per litter ). Additional placentas were collected and placed in 4% paraformaldehyde (PFA) for histological analysis (Block 2 only). Amniotic fluid was collected by needle aspiration from litters euthanized at E11.5 and snap frozen in liquid nitrogen. Embryo livers were collected from litters euthanized at E17.5 and snap frozen in liquid nitrogen. Dam livers were weighed, a portion of the left lateral lobe was placed in 4% PFA for histology, and another portion of the same lobe was snap frozen in liquid nitrogen. A third liver section was obtained from Block 2 dams and fixed in McDowell and Trump’s fixative for electron microscopy (EM). Gross lesions were collected when observed and placed in 4% PFA for histology. Dam kidneys were removed, a cross section was prepared from the right kidney, a longitudinal section was prepared from the left kidney, and both sections were fixed in 4% PFA for histological analysis.
Dam livers, kidneys, and placentas were trimmed and embedded by the NIEHS Mouse Embryo Phenotyping Core. Tissues collected at necropsy were fixed in 4% PFA for 72 h and paraffin embedded, and 5-μm sections were prepared and stained with hematoxylin and eosin (H&E). Pathology was evaluated and a pathology review conducted by S.A.E. Diplomate American College of Veterinary Pathologists (DACVP). Pathology reviews were conducted as an informed approach analysis [e.g., nonblinded analysis; see Sills et al. ([2019])]. Select tissue slides were scanned using the AT2 Scanner (Aperio). Images were then captured for publication using the ImageScope software; version 12.3.0.5056 (Aperio). Serum and urine obtained from dams in Block 2 were analyzed using the AU480 clinical chemistry analyzer (Beckman Coulter Inc.). Reagents and calibration standards used to measure alkaline phosphatase (ALP), alanine aminotransferase (ALT), aspartate aminotransferase (AST), blood urea nitrogen (BUN), serum creatinine, urine creatinine, glucose (Glu), total protein (TP), triglyceride (Trig), high-density lipoprotein (HDL), cholesterol (Chol), and albumin (ALB) were purchased from Beckman Coulter Inc. Reagents for sorbitol dehydrogenase (SDH), total bile acid (TBA), and micro-TP were purchased from Sekisui Diagnostics. The reagent used to measure low-density lipoprotein (LDL) was purchased form Diazyme Laboratories.

O=C(O)C(F)(F)C(F)(F)C(F)(F)C(F)(F)C(F)(F)C(F)(F)C(F)(F)F [PFOA, Perfluorooctanoic acid]
Incidence of livers with adverse outcomes including cytoplasmic alteration (all dose groups, E11.5 and E17.5): 100% | CA, any severity: % (E11.5, 1 mg/kg/d): 100% | CA, any severity: N (E11.5, 1 mg/kg/d): 5 | CA, marked: % (E11.5, 1 mg/kg/d): 0% | CA, marked: N (E11.5, 1 mg/kg/d): 0 | CA, minimal to mild: % (E11.5, 1 mg/kg/d): 100% | CA, minimal to mild: N (E11.5, 1 mg/kg/d): 5 | CA, moderate: % (E11.5, 1 mg/kg/d): 0% | CA, moderate: N (E11.5, 1 mg/kg/d): 0 | Focal regions of classic necrosis: % (E11.5, 1 mg/kg/d): 0% | Focal regions of classic necrosis: N (E11.5, 1 mg/kg/d): 0 | Increase in cell death: % (E11.5, 1 mg/kg/d): 20% | Increase in cell death: N (E11.5, 1 mg/kg/d): 1 | Increase in mitotic figures: % (E11.5, 1 mg/kg/d): 40% | Increase in mitotic figures: N (E11.5, 1 mg/kg/d): 2 | Vacuolation, any severity: % (E11.5, 1 mg/kg/d): 0% | Vacuolation, any severity: N (E11.5, 1 mg/kg/d): 0 | Vacuolation, mild: % (E11.5, 1 mg/kg/d): 0% | Vacuolation, mild: N (E11.5, 1 mg/kg/d): 0 | Vacuolation, minimal: % (E11.5, 1 mg/kg/d): 0% | Vacuolation, minimal: N (E11.5, 1 mg/kg/d): 0 | Vacuolation, moderate: % (E11.5, 1 mg/kg/d): 0% | Vacuolation, moderate: N (E11.5, 1 mg/kg/d): 0 | CA, any severity: % (E11.5, 5 mg/kg/d): 100% | CA, any severity: N (E11.5, 5 mg/kg/d): 5 | CA, marked: % (E11.5, 5 mg/kg/d): 100% | CA, marked: N (E11.5, 5 mg/kg/d): 5 | CA, minimal to mild: % (E11.5, 5 mg/kg/d): 0% | CA, minimal to mild: N (E11.5, 5 mg/kg/d): 0 | CA, moderate: % (E11.5, 5 mg/kg/d): 0% | CA, moderate: N (E11.5, 5 mg/kg/d): 0 | Focal regions of classic necrosis: % (E11.5, 5 mg/kg/d): 40% | Focal regions of classic necrosis: N (E11.5, 5 mg/kg/d): 2 | Increase in cell death: % (E11.5, 5 mg/kg/d): 60% | Increase in cell death: N (E11.5, 5 mg/kg/d): 3 | Increase in mitotic figures: % (E11.5, 5 mg/kg/d): 100% | Increase in mitotic figures: N (E11.5, 5 mg/kg/d): 5 | Vacuolation, any severity: % (E11.5, 5 mg/kg/d): 100% | Vacuolation, any severity: N (E11.5, 5 mg/kg/d): 5 | Vacuolation, mild: % (E11.5, 5 mg/kg/d): 100% | Vacuolation, mild: N (E11.5, 5 mg/kg/d): 5 | Vacuolation, minimal: % (E11.5, 5 mg/kg/d): 0% | Vacuolation, minimal: N (E11.5, 5 mg/kg/d): 0 | Vacuolation, moderate: % (E11.5, 5 mg/kg/d): 0% | Vacuolation, moderate: N (E11.5, 5 mg/kg/d): 0 | CA, any severity: % (E17.5, 1 mg/kg/d): 100% | CA, any severity: N (E17.5, 1 mg/kg/d): 5 | CA, marked: % (E17.5, 1 mg/kg/d): 0% | CA, marked: N (E17.5, 1 mg/kg/d): 0 | CA, minimal to mild: % (E17.5, 1 mg/kg/d): 0% | CA, minimal to mild: N (E17.5, 1 mg/kg/d): 0 | CA, moderate: % (E17.5, 1 mg/kg/d): 100% | CA, moderate: N (E17.5, 1 mg/kg/d): 5 | Focal regions of classic necrosis: % (E17.5, 1 mg/kg/d): 0% | Focal regions of classic necrosis: N (E17.5, 1 mg/kg/d): 0 | Increase in cell death: % (E17.5, 1 mg/kg/d): 100% | Increase in cell death: N (E17.5, 1 mg/kg/d): 5 | Increase in mitotic figures: % (E17.5, 1 mg/kg/d): 0% | Increase in mitotic figures: N (E17.5, 1 mg/kg/d): 0 | Vacuolation, any severity: % (E17.5, 1 mg/kg/d): 0% | Vacuolation, any severity: N (E17.5, 1 mg/kg/d): 0 | Vacuolation, mild: % (E17.5, 1 mg/kg/d): 0% | Vacuolation, mild: N (E17.5, 1 mg/kg/d): 0 | Vacuolation, minimal: % (E17.5, 1 mg/kg/d): 0% | Vacuolation, minimal: N (E17.5, 1 mg/kg/d): 0 | Vacuolation, moderate: % (E17.5, 1 mg/kg/d): 0% | Vacuolation, moderate: N (E17.5, 1 mg/kg/d): 0 | CA, any severity: % (E17.5, 5 mg/kg/d): 100% | CA, any severity: N (E17.5, 5 mg/kg/d): 6 | CA, marked: % (E17.5, 5 mg/kg/d): 100% | CA, marked: N (E17.5, 5 mg/kg/d): 6 | CA, minimal to mild: % (E17.5, 5 mg/kg/d): 0% | CA, minimal to mild: N (E17.5, 5 mg/kg/d): 0 | CA, moderate: % (E17.5, 5 mg/kg/d): 0% | CA, moderate: N (E17.5, 5 mg/kg/d): 0 | Focal regions of classic necrosis: % (E17.5, 5 mg/kg/d): 0% | Focal regions of classic necrosis: N (E17.5, 5 mg/kg/d): 0 | Increase in cell death: % (E17.5, 5 mg/kg/d): 100% | Increase in cell death: N (E17.5, 5 mg/kg/d): 6 | Increase in mitotic figures: % (E17.5, 5 mg/kg/d): 0% | Increase in mitotic figures: N (E17.5, 5 mg/kg/d): 0 | Vacuolation, any severity: % (E17.5, 5 mg/kg/d): 100% | Vacuolation, any severity: N (E17.5, 5 mg/kg/d): 6 | Vacuolation, mild: % (E17.5, 5 mg/kg/d): 0% | Vacuolation, mild: N (E17.5, 5 mg/kg/d): 0 | Vacuolation, minimal: % (E17.5, 5 mg/kg/d): 0% | Vacuolation, minimal: N (E17.5, 5 mg/kg/d): 0 | Vacuolation, moderate: % (E17.5, 5 mg/kg/d): 100% | Vacuolation, moderate: N (E17.5, 5 mg/kg/d): 6

Source: article PMC7064328 (Environmental Health Perspectives, 2020)
